Source: patent publication US9307766B2, “Isoxazoline derivatives as insecticidal compounds” (Syngenta Participations AG, priority 2011, dated 2016)

Key:
Format in all cases: in vivo
Diabrotica balteata = Diabrotica balteata (corn root worm) artificial diet test; details: 120 h, 200 ppm (concentration in well 18 ppm) on artificial diet, L2 larvae, larval mortality and growth regulation after 5 days
Experimental: Diabrotica balteata (Corn Root Worm):
A 24-well microtiter plate (MTP) with artificial diet was treated with test solutions at an application rate of 200 ppm (concentration in well 18 ppm) by pipetting. After drying, the MTP's were infested with L2 larvae (6-10 per well). After an incubation period of 5 days, samples were checked for larval mortality and growth regulation.

Thrips tabaci = Thrips tabaci (onion thrips) leaf disc spray test; details: foliar, 168 h, 200 ppm sprayed on sunflower leaf discs, thrip population of mixed ages, mortality after 7 days
Experimental: Thrips tabaci (Onion Thrips):
Sunflower leaf discs were placed on agar in a 24-well microtiter plate and sprayed with test solutions at an application rate of 200 ppm. After drying, the leaf discs were infested with a thrip population of mixed ages. After an incubation period of 7 days, samples were checked for mortality.

Heliothis virescens = Heliothis virescens (tobacco budworm) egg test on artificial diet; details: 96 h, 200 ppm (concentration in well 18 ppm) by pipetting, eggs 0-24 h old on artificial diet, egg mortality, larval mortality, growth regulation after 4 days
Experimental: Heliothis virescens (Tobacco Budworm):
Eggs (0-24 h old) were placed in 24-well microtiter plate on artificial diet and treated with test solutions at an application rate of 200 ppm (concentration in well 18 ppm) by pipetting. After an incubation period of 4 days, samples were checked for egg mortality, larval mortality, and growth regulation.

Spodoptera littoralis = Spodoptera littoralis (Egyptian cotton leafworm) leaf disc spray test; details: foliar, 72 h, 200 ppm sprayed on cotton leaf discs, L1 larvae, mortality, feeding behavior, growth regulation 3 days after treatment
Description: Spodoptera littoralis (Egyptian Cotton Leafworm):
Cotton leaf discs were placed on agar in a 24-well microtiter plate and sprayed with test solutions at an application rate of 200 ppm. After drying, the leaf discs were infested with 5 L1 larvae. The samples were checked for mortality, feeding behavior, and growth regulation 3 days after treatment (DAT).

Tetranychus urticae = Tetranychus urticae (two-spotted spider mite) leaf disc spray test; details: foliar, 192 h, 200 ppm sprayed on bean leaf discs, mite populations of mixed ages, egg, larval and adult mortality 8 days later
Description: Tetranychus urticae (Two-Spotted Spider Mite):
Bean leaf discs on agar in 24-well microtiter plates were sprayed with test solutions at an application rate of 200 ppm. After drying, the leaf discs are infested with mite populations of mixed ages. 8 days later, discs are checked for egg mortality, larval mortality, and adult mortality.

Plutella xylostella = Plutella xylostella (diamond back moth) artificial diet test; details: 144 h, 200 ppm (concentration in well 18 ppm) on artificial diet, L2 larvae, larval mortality and growth regulation after 6 days
Experimental: Plutella xylostella (Diamond Back Moth):
24-well microtiter plate (MTP) with artificial diet was treated with test solutions at an application rate of 200 ppm (concentration in well 18 ppm) by pipetting. After drying, the MTP's were infested with L2 larvae (7-12 per well). After an incubation period of 6 days, samples were checked for larval mortality and growth regulation.

Measured: pest or weed control at 200 ppm

O=C(CNC(=O)c1ccc(C2=NOC(c3cc(Cl)cc(Cl)c3)(C(F)(F)F)C2)c2ccccc12)NC1CS(=O)(=O)C1 (stereo not drawn) [Compound D05, 4-[5-(3,5-dichlorophenyl)-5-(trifluoromethyl)-4H-isoxazol-3-yl]-N-[2-[(1,1-dioxothietan-3-yl)amino]-2-oxo-ethyl]naphthalene-1-carboxamide]
≥ 80%: all assays above

O=C(NC1CSC1)c1ccc(C2=NOC(c3cc(Cl)cc(Cl)c3)(C(F)(F)F)C2Br)c2ccccc12 (stereo not drawn) [Compound D04, 4-[4-bromo-5-(3,5-dichlorophenyl)-5-(trifluoromethyl)-4H-isoxazol-3-yl]-N-(thietan-3-yl)naphthalene-1-carboxamide]
≥ 80%: all assays above

CC1(NC(=O)c2ccc(C3=NOC(c4cc(Cl)cc(Cl)c4)(C(F)(F)F)C3Br)c3ccccc23)CSC1 (stereo not drawn) [Compound D02, 4-[4-bromo-5-(3,5-dichlorophenyl)-5-(trifluoromethyl)-4H-isoxazol-3-yl]-N-(3-methylthietan-3-yl)naphthalene-1-carboxamide]
≥ 80%: all assays above

O=C(NC1CSC1)c1cnc(C2=NOC(c3cc(Cl)cc(Cl)c3)(C(F)(F)F)C2)c2ccccc12 (stereo not drawn) [Compound D15, 1-[5-(3,5-dichlorophenyl)-5-(trifluoromethyl)-4H-isoxazol-3-yl]-N-(thietan-3-yl)isoquinoline-4-carboxamide]
≥ 80%: all assays above

O=C(NC1CS(=O)(=O)C1)c1ccc(C2=NOC(c3cc(Cl)cc(Cl)c3)(C(F)(F)F)C2Br)c2ccccc12 (stereo not drawn) [Compound D01, 4-[4-bromo-5-(3,5-dichlorophenyl)-5-(trifluoromethyl)-4H-isoxazol-3-yl]-N-(1,1-dioxothietan-3-yl)naphthalene-1-carboxamide]
≥ 80%: all assays above

O=C(NC1C[S+]([O-])C1)c1cnc(C2=NOC(c3cc(Cl)cc(Cl)c3)(C(F)(F)F)C2)c2ccccc12 (stereo not drawn) [Compound D16, 1-[5-(3,5-dichlorophenyl)-5-(trifluoromethyl)-4H-isoxazol-3-yl]-N-(1-oxothietan-3-yl)isoquinoline-4-carboxamide]
≥ 80%: all assays above

O=C(CNC(=O)c1ccc(C2=NOC(c3cc(Cl)cc(Cl)c3)(C(F)(F)F)C2)c2ccccc12)NC1CSC1 (stereo not drawn) [Compound D08, 4-[5-(3,5-dichlorophenyl)-5-(trifluoromethyl)-4H-isoxazol-3-yl]-N-[2-oxo-2-(thietan-3-ylamino)ethyl]naphthalene-1-carboxamide]
not listed: Heliothis virescens
≥ 80%: all other assays above

CC1(NC(=O)CNC(=O)c2ccc(C3=NOC(c4cc(Cl)cc(Cl)c4)(C(F)(F)F)C3)c3ccccc23)CSC1 (stereo not drawn) [Compound D06, 4-[5-(3,5-dichlorophenyl)-5-(trifluoromethyl)-4H-isoxazol-3-yl]-N-[2-[(3-methylthietan-3-yl)amino]-2-oxo-ethyl]naphthalene-1-carboxamide]
≥ 80%: all assays above

O=C(NC1CS(=O)(=O)C1)c1cnc(C2=NOC(c3cc(Cl)cc(Cl)c3)(C(F)(F)F)C2)c2ccccc12 (stereo not drawn) [Compound D13, 1-[5-(3,5-dichlorophenyl)-5-(trifluoromethyl)-4H-isoxazol-3-yl]-N-(1,1-dioxothietan-3-yl)isoquinoline-4-carboxamide]
≥ 80%: Diabrotica balteata | Heliothis virescens | Spodoptera littoralis | Plutella xylostella

O=C(NC1CSC1)c1ccc(C2=NOC(c3cc(Cl)cc(Cl)c3)(C(F)(F)F)C2)c2ncccc12 (stereo not drawn) [Compound D10, 8-[5-(3,5-dichlorophenyl)-5-(trifluoromethyl)-4H-isoxazol-3-yl]-N-(thietan-3-yl)quinoline-5-carboxamide]
≥ 80%: Diabrotica balteata | Heliothis virescens | Spodoptera littoralis | Plutella xylostella

O=C(NC1C[S+]([O-])C1)c1ccc(C2=NOC(c3cc(Cl)cc(Cl)c3)(C(F)(F)F)C2Br)c2ccccc12 (stereo not drawn) [Compound D03, 4-[4-bromo-5-(3,5-dichlorophenyl)-5-(trifluoromethyl)-4H-isoxazol-3-yl]-N-(1-oxothietan-3-yl)naphthalene-1-carboxamide]
≥ 80%: all assays above

O=C(CNC(=O)c1ccc(C2=NOC(c3cc(Cl)cc(Cl)c3)(C(F)(F)F)C2)c2ccccc12)NC1C[S+]([O-])C1 (stereo not drawn) [Compound D07, 4-[5-(3,5-dichlorophenyl)-5-(trifluoromethyl)-4H-isoxazol-3-yl]-N-[2-oxo-2-[(1-oxothietan-3-yl)amino]ethyl]naphthalene-1-carboxamide]
≥ 80%: Thrips tabaci | Spodoptera littoralis | Tetranychus urticae | Plutella xylostella

CC1(NC(=O)c2cnc(C3=NOC(c4cc(Cl)cc(Cl)c4)(C(F)(F)F)C3)c3ccccc23)CSC1 (stereo not drawn) [Compound D14, 1-[5-(3,5-dichlorophenyl)-5-(trifluoromethyl)-4H-isoxazol-3-yl]-N-(3-methylthietan-3-yl)isoquinoline-4-carboxamide]
not listed: Spodoptera littoralis
≥ 80%: all other assays above

O=C(NC1C[S+]([O-])C1)c1ccc(C2=NOC(c3cc(Cl)cc(Cl)c3)(C(F)(F)F)C2)c2ncccc12 (stereo not drawn) [Compound D11, 8-[5-(3,5-dichlorophenyl)-5-(trifluoromethyl)-4H-isoxazol-3-yl]-N-(1-oxothietan-3-yl)quinoline-5-carboxamide]
≥ 80%: Heliothis virescens | Spodoptera littoralis | Plutella xylostella

O=C(NC1CS(=O)(=O)C1)c1ccc(C2=NOC(c3cc(Cl)cc(Cl)c3)(C(F)(F)F)C2)c2ncccc12 (stereo not drawn) [Compound D09, 8-[5-(3,5-dichlorophenyl)-5-(trifluoromethyl)-4H-isoxazol-3-yl]-N-(1,1-dioxothietan-3-yl)quinoline-5-carboxamide]
≥ 80%: Spodoptera littoralis | Plutella xylostella
